Assay [1] addresses Bromodomain-containing protein 4 (Homo sapiens, UniProt O60885). Description: Displacement of biotinylated acetylated peptide from recombinant human partial length BRD4 long isoform bromodomain 1/2 (N44 to E460 residues) expressed in Escherichia coli BL21 measured after 1 hr by Bromoscan method.
A further assay has as its system MV4-11. Description: Cytotoxicity against human MV411 cells after 72 hrs by CellTiter-Glo assay. The format is functional, cell-based. To be noted: MV4-11, 72 h.

Consider `Cc1noc(C)c1-c1ccc2nc(N3CCN(CCN(C)C)CC3)nc(N[C@@H](CO)c3ccccc3)c2c1`, for which the dissociation constant (Kd) in assay [1] stood at 130 nM. In the assay on MV4-11, this compound returned an IC50 of 2100 nM. As to `Cc1noc(C)c1-c1ccc2nc(N3CCN(CCN(C)C)CC3)nc(NCc3ccccc3Cl)c2c1`, the Kd in assay [1] turned out to be 85 nM. The compound further returned an IC50 with MV4-11 of 1250 nM. The like results for `Cc1noc(C)c1-c1ccc2nc(C(=O)NCc3cnn(C)c3)nc(NCc3cccc(Cl)c3)c2c1` were, in that order, 59 nM and 1270 nM. The like results for `Cc1noc(C)c1-c1ccc2nc(C(=O)N3CCN(CCN(C)C)CC3)nc(NCc3cccc(Cl)c3)c2c1` were, in that order, 570 nM and 4710 nM. The like results for `Cc1noc(C)c1-c1ccc2nc(N3CCN(CCN(C)C)CC3)nc(Nc3ccc(Cl)cc3)c2c1` were, in that order, 2600 nM and 1510 nM. `Cc1noc(C)c1-c1ccc2nc(Cl)nc(NCc3cccc(Cl)c3)c2c1` registered an IC50 in the assay on MV4-11 of 11300 nM. This counts as double-digit micromolar. `Cc1oncc1-c1ccc2nc(N3CCN(CCN(C)C)CC3)nc(NCc3cccc(Cl)c3)c2c1`: in assay [1], the Kd stood at 1100 nM. Further, the IC50 with MV4-11 was determined as 8030 nM. In the same order, the values of `Cc1noc(C)c1-c1ccc2nc(N3CCN(CCCN(C)C)CC3)nc(NCc3cccc(Cl)c3)c2c1` are 97 nM and 2360 nM. `CNc1nc(NCc2cccc(Cl)c2)c2cc(-c3c(C)noc3C)ccc2n1` returned an IC50 in the assay with MV4-11 of 3590 nM.

As for `Cc1noc(C)c1-c1ccc2nc(N3CCCN(CCN(C)C)CC3)nc(NCc3cccc(Cl)c3)c2c1`, the Kd in assay [1] amounted to 150 nM. The compound also had an IC50 with MV4-11 of 2100 nM. The like results for `Cc1noc(C)c1-c1ccc2nc(N3CCN(CCC(C)C)CC3)nc(NCc3cccc(Cl)c3)c2c1` were, in that order, 980 nM and 6890 nM. In the same order, the values of `Cc1noc(C)c1-c1ccc2nc(-c3cnn(CCN(C)C)c3)nc(NCc3cccc(Cl)c3)c2c1` are 56 nM and 1330 nM. Regarding `Cc1noc(C)c1-c1ccc2nc(N3CCN(CCN(C)C)CC3)nc(N3CCOCC3c3ccccc3)c2c1` (stereo unspecified), the IC50 in the assay on MV4-11 was found to be 1830 nM. `Cc1noc(C)c1-c1ccc2c(NCc3cccc(Cl)c3)nc(N3CCN(CCN(C)C)CC3)nc2c1`: the Kd in assay [1] worked out at 610 nM. In addition, the IC50 in the assay on MV4-11 worked out at 1870 nM. In the same order, the values of `Cc1noc(C)c1-c1ccc2nc(N3CCN(CCN(C)C)CC3)nc(N3CCC3c3ccccc3)c2c1` (stereo unspecified) are 480 nM and 4880 nM.

As to `CN(C)CCN1CCN(c2nc(NCc3cccc(Cl)c3)c3cc(-c4ccc(O)nc4)ccc3n2)CC1`, in assay [1], the Kd was determined as 550 nM. The compound also showed an IC50 in the assay on MV4-11 of 6070 nM. For `Cc1noc(C)c1-c1ccc2nc(N3CCN(CCN(C)C)CC3)nc(NCc3ccc(Cl)cc3)c2c1`, the Kd in assay [1] worked out at 520 nM. This compound yielded an IC50 in the assay on MV4-11 of 3480 nM. The like results for `Cc1noc(C)c1-c1ccc2nc(N3CCN(CCN(C)C)CC3)nc(NCc3cccc(F)c3)c2c1` were, in that order, 170 nM and 1230 nM. On to `Cc1noc(C)c1-c1ccc2nc(N3CCN(C(=O)CO)CC3)nc(NCc3cccc(Cl)c3)c2c1`, for which the Kd in assay [1] was 71 nM. Besides, the IC50 with MV4-11 turned out to be 1330 nM.

For `Cc1noc(C)c1-c1ccc2nc(N3CCN(C(=O)CN(C)C)CC3)nc(NCc3cccc(Cl)c3)c2c1`, in assay [1], the Kd stood at 30 nM. This compound also came in with an IC50 in the assay with MV4-11 of 1230 nM. Take `Cc1noc(C)c1-c1ccc2nc(N3CCN(CCN(C)C)CC3)nc(NCc3cccs3)c2c1`: in assay [1], the Kd came out at 150 nM. Moreover, the IC50 with MV4-11 turned out to be 1620 nM.

For the compound `CN(C)CCN1CCN(c2nc(NCc3cccc(Cl)c3)c3cc(-c4ccn(C)c(=O)c4)ccc3n2)CC1`, the Kd in assay [1] came to 7100 nM. Besides, the half-maximal inhibitory concentration (IC50) in the assay with MV4-11 was found to be 6890 nM. Turning to `CNC(=O)Cn1cc(-c2nc(NCc3cccc(Cl)c3)c3cc(-c4c(C)noc4C)ccc3n2)cn1`, in the assay with MV4-11, the IC50 was 1010 nM. In the assay on MV4-11, `Cc1noc(C)c1-c1ccc2nc(-n3cc(CCO)cn3)nc(NCc3cccc(Cl)c3)c2c1` gave an IC50 of 3080 nM. Compared with the last compound, the IC50 is about 3-fold higher. Take `Cc1noc(C)c1-c1ccc2nc(C(=O)Nc3cnn(C)c3)nc(NCc3cccc(Cl)c3)c2c1`: in assay [1], the equilibrium dissociation constant (Kd) was 290 nM. This compound also showed an IC50 in the assay on MV4-11 of 3590 nM.

As for `COCCn1cc(-c2nc(NCc3cccc(Cl)c3)c3cc(-c4c(C)noc4C)ccc3n2)cn1`, the Kd in assay [1] was determined as 92 nM. Further, the IC50 in the assay on MV4-11 turned out to be 1870 nM. The like results for `Cc1noc(C)c1-c1ccc2nc(N3CCN(CCN(C)C)CC3)nc(N3CCCC3c3ccccc3)c2c1` (stereo unspecified) were, in that order, 250 nM and 2540 nM. With `Cc1n[nH]c(C)c1-c1ccc2nc(N3CCN(CCN(C)C)CC3)nc(NCc3cccc(Cl)c3)c2c1`, the Kd in assay [1] was found to be 1500 nM. In addition, in the assay on MV4-11, it took 2850 nM to reach half-maximal inhibition (IC50). For the compound `Cc1noc(C)c1-c1ccc2nc(N3CCN(CCN(C)C)CC3)nc(NC3(c4cccc(Cl)c4)CC3)c2c1`, the Kd in assay [1] is 86 nM. Besides, the IC50 with MV4-11 was 1600 nM. The like results for `Cc1noc(C)c1-c1ccc2nc(C(=O)NCc3cccnc3)nc(NCc3cccc(Cl)c3)c2c1` were, in that order, 56 nM and 1430 nM. With `Cc1nocc1-c1ccc2nc(N3CCN(CCN(C)C)CC3)nc(NCc3cccc(Cl)c3)c2c1`, the Kd in assay [1] stood at 360 nM. The IC50 in the assay on MV4-11 stood at 2970 nM.

As for `Cc1noc(C)c1-c1ccc2nc(N3CCN(CCN(C)C)CC3)nc(N(C)Cc3cccc(Cl)c3)c2c1`, the Kd in assay [1] was determined as 270 nM. The same compound gave an IC50 with MV4-11 of 5500 nM. Turning to `Cc1noc(C)c1-c1ccc2[nH]c(=O)cc(NCc3cccc(Cl)c3)c2c1`, the dissociation constant Kd in assay [1] stood at 55 nM. In the assay on MV4-11, this compound returned an IC50 of 1800 nM. In the same order, the values of `Cc1noc(C)c1-c1ccc2nc(N3CCN(CCN(C)C)CC3)nc(NCCc3ccc(Cl)cc3)c2c1` are 3000 nM and 6650 nM.

For `Cc1cc(-c2ccc3nc(N4CCN(CCN(C)C)CC4)nc(NCc4cccc(Cl)c4)c3c2)cnc1O`, the Kd in assay [1] was 310 nM. Also, the IC50 in the assay on MV4-11 amounted to 1130 nM.

As for `Cc1noc(C)c1-c1ccc2nc(N3CCN(CCN(C)C)CC3)nc(NC(C)c3cccc(Cl)c3)c2c1` (stereo unspecified), in assay [1], the Kd came to 270 nM. In the assay on MV4-11, the IC50 came to 4350 nM. As to `Cc1ccc(NC(=O)c2nc(NCc3cccc(Cl)c3)c3cc(-c4c(C)noc4C)ccc3n2)cn1`, the Kd in assay [1] is 620 nM. This compound also yielded an IC50 in the assay on MV4-11 of 4520 nM. In the case of `Cc1noc(C)c1-c1ccc2nc(N3CCN(CCN(C)C)CC3)nc(N3CCCCC3c3ccccc3)c2c1` (stereo unspecified), the Kd in assay [1] is 60 nM. Further, the IC50 in the assay with MV4-11 amounted to 5070 nM.

On to `Cc1noc(C)c1-c1ccc2nc(N3CCN(C)CC3)nc(NCc3cccc(Cl)c3)c2c1`, for which the Kd in assay [1] was found to be 140 nM. The IC50 with MV4-11 was 1600 nM. Turning to `Cc1noc(C)c1-c1ccc2nc(N3CCN(CCO)CC3)nc(NCc3cccc(Cl)c3)c2c1`, in assay [1], the Kd came out at 56 nM. 1670 nM corresponded to half-maximal inhibition with MV4-11 (IC50). As to `CN(C)CCN1CCN(c2nc(NCc3cccc(Cl)c3)c3cc(-c4ccnc(O)c4)ccc3n2)CC1`, the Kd in assay [1] is 9100 nM. The compound further showed an IC50 in the assay on MV4-11 of 17300 nM. On to `Cc1noc(C)c1-c1ccc2nc(-c3cnn(CCO)c3)nc(NCc3cccc(Cl)c3)c2c1`, for which the Kd in assay [1] was 95 nM. In addition, the IC50 in the assay with MV4-11 worked out at 1670 nM.

Take `Cc1noc(C)c1-c1ccc2nc(N3CCN(CCN(C)C)CC3)nc(NCc3cc(Cl)ccn3)c2c1`: the Kd in assay [1] was 110 nM. The IC50 with MV4-11 was determined as 1600 nM. The like results for `Cc1noc(C)c1-c1ccc2nc(-c3cnn(CC(N)=O)c3)nc(NCc3cccc(Cl)c3)c2c1` were, in that order, 130 nM and 660 nM. Regarding `Cc1noc(C)c1-c1ccc2nc(-c3cnn(CCC#N)c3)nc(NCc3cccc(Cl)c3)c2c1`, the Kd in assay [1] was determined as 120 nM. This compound had an IC50 with MV4-11 of 950 nM.

Regarding `Cc1noc(C)c1-c1ccc2nc(-c3ccc(CO)nc3)nc(NCc3cccc(Cl)c3)c2c1`, in the assay with MV4-11, the concentration for half-maximal inhibition (IC50) was found to be 2640 nM.

The term Kd denotes the equilibrium constant for the complex coming apart. For orientation: IC50 means the concentration at which inhibition is half-maximal. Low values mean inhibition by little substance, high ones a need for much substance.

The values are drawn from ChEMBL document CHEMBL4261601, “Discovery and lead identification of quinazoline-based BRD4 inhibitors” (Bioorg Med Chem Lett, 2018).
